#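 Test compounds were applied to cells in 96-well plates for 48 hours at 5 doses. GI50 is the concentration that inhibits growth by half. At the TGI there is no net growth.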
# Legend:
# Experiment in all cases: inhibition of tumour cell growth, NCI panel, 48 h
# [1] = test system: EKVX NSCLC
# [2] = test system: HT29 colon
# [3] = test system: K-562 leukemia
# [4] = test system: MALME-3M melanoma
# [5] = test system: OVCAR-3 ovarian
# [6] = test system: SF-539 CNS
# [7] = test system: SK-OV-3 ovarian
# [8] = test system: SR leukemia
# [9] = test system: SW-620 colon
# [10] = test system: TK-10 renal
SMILES,GI50 [1] [µM],TGI [1] [µM],GI50 [2] [µM],TGI [2] [µM],GI50 [3] [nM],TGI [3] [µM],GI50 [4] [µM],TGI [4] [µM],GI50 [5] [µM],TGI [5] [µM],GI50 [6] [µM],TGI [6] [µM],GI50 [7] [µM],TGI [7] [µM],GI50 [8] [nM],TGI [8] [µM],GI50 [9] [µM],TGI [9] [µM],GI50 [10] [µM],TGI [10] [µM]
CC(O)CN(CCN(CC(C)O)CC(C)O)CC(C)O.O=[N+]([O-])O.[Cu+2] (stereo not given),67.3,> 100,> 100,> 100,> 100000,> 100,> 100,> 100,> 100,> 100,> 100,> 100,> 100,> 100,> 100000,> 100,> 100,> 100,> 100,> 100
O=Cc1ccc(C(F)(F)F)cc1.[C-]#[O+].[C-]#[O+].[C-]#[O+].[Cr],16.3,45,22.6,54.3,26200,97.6,26.8,91,25.4,> 100,18.5,54.3,31.3,> 100,15100,46.6,30.9,> 100,25.9,> 100
COc1ccc(C(=O)Nc2cccc(C3CC(=O)c4c(cc(OC)c(OC)c4OC)O3)c2)cc1 (stereo not given),3.12,> 100,3.38,12.2,367,> 100,1.56,32.6,0.337,39.7,1.66,4.65,3.63,98.4,171,> 100,0.691,> 100,7.28,> 100
O=C(O)/C(Cl)=C(/Cl)C(=O)Nc1cccc(Cl)c1,,33.6,,42.3,,40.1,,31.7,,31.4,,> 70.3,,25.4,,26.4,,32.1,,33.8
N#CC(C#N)=C1NC(=O)C(c2ccccc2)C(=O)N1 (stereo not given),,> 100,,> 100,,> 100,,> 100,,> 100,,> 100,,> 100,,> 100,,> 100,,> 100
COc1ccc(C2CC(c3cc(OC)c(OC)c(OC)c3)=NN2)cc1 (stereo not given),9.26,> 100,3.91,> 100,2660,> 100,24.7,> 100,3.74,55.3,5.88,36.6,12.4,> 100,1010,4.43,4.58,> 100,42,> 100
Fc1ccc(Nc2nc(Nc3ccc(-c4nc5ccccc5[nH]4)cc3)nc(N3CCCC3)n2)cc1,2.27,12.8,2.54,5.62,2310,5.35,2.17,4.81,2.75,6.61,2.08,4.26,15.9,31.6,927,6.5,1.87,3.7,17.1,31.3

# From PubChem BioAssay (NCI)
